The conditions of data set [1]: volume median diameter. The method, then: This is synonymous with volume median diameter, and it was measured using a laser diffraction and scattering particle diameter analyzer, the LMS-24 SK Laser Micron Sizer (Seishin Enterprise Co. Ltd.) and expressed as a cumulative 50% volume particle diameter.
For data set [2] the following is noted: width of approximately 300 crystals. The method, then: The crystals were observed and photographed using a VH-8000 digital microscope (Keyence Corporation). The width of approximately 300 crystals was measured and calculations performed.

Average particle diameter and Average width data for two compounds are collected here from US20100099847A1 (Kyowa Hakko Bio Co., Ltd., priority 2006, published 2010).

Turning to `N[C@@H](CCC(=O)N[C@@H](CS)C(=O)NCC(=O)O)C(=O)O` [Commercial product A, glutathione], the Average particle diameter in data set [1] is 9 μm.
The compound `N[C@@H](CCC(=O)N[C@@H](CS)C(=O)NCC(=O)O)C(=O)O` [commercial product B, glutathione] came in with an Average width in data set [2] of 3 μm.
